From ChEMBL document CHEMBL3046905, “Synthesis, biological evaluation and molecular docking studies of 1,3-benzoxazine derivatives as potential anticancer agents” (Med Chem Res, 2013) come the findings set out here.

Active and inactive are the calls of the source. The rule behind the calls is not given here.

In experiment [1] the test system is MCF7. Kind of experiment: Growth inhibition of Homo sapiens (human) MCF7 cells after 48 hr by MTT assay. It is filed as functional, cell-based.
The test system of experiment [2] is MCF7. Kind of experiment: Growth inhibition of Homo sapiens (human) MCF7 cells at 60 ug/ml after 48 hr by MTT assay relative to control. It is filed as functional. The following applies: MCF7, 48 h, read-out: GI. On the technique in general: Tetrazolium dyes change colour on reduction, which living cells bring about.
Experiment [3] has as its system MCF7. Put plainly: Growth inhibition of Homo sapiens (human) MCF7 cells at 30 ug/ml after 48 hr by MTT assay relative to control. The experiment is classed as functional. The following applies: MCF7, 48 h, read-out: GI.
For experiment [4], the system named is MCF7. Kind of experiment: Growth inhibition of Homo sapiens (human) MCF7 cells at 7.5 ug/ml after 48 hr by MTT assay relative to control. It is filed as functional. The following applies: for inhibition of growth at 7.5 µg/mL: MCF7, 48 h, read-out: GI.
The subject of experiment [5] is MCF7. Kind of experiment: Growth inhibition of Homo sapiens (human) MCF7 cells at 15 ug/ml after 48 hr by MTT assay relative to control. The experiment is classed as functional. The following applies: for inhibition of growth at 15 µg/mL: MCF7, 48 h, read-out: GI.
The mark [6] stands for this setting: Homo sapiens, MCF7, 48 h, read-out: IC50.

In general, IC50 refers to the concentration that gives 50% inhibition. On to `O=c1cc(-c2ccccc2)oc2cc(N3COc4c(Br)cc(Br)cc4C3)ccc12`, for which the IC50 result in experiment [1] (mcf7) is listed as “Not Active”. Further, the inhibition of growth at 60 µg/mL in experiment [2] is 26.5%. Besides, in experiment [3], the inhibition of growth at 30 µg/mL was determined as 11.1%. In experiment [4], the inhibition of growth at 7.5 µg/mL stood at 1.48%. Also, in experiment [5], the inhibition of growth at 15 µg/mL came to 1.64%.
For `Cc1cccc2c1OCN(c1ccc3oc(-c4ccccc4)cc(=O)c3c1)C2`, the IC50 in experiment [1] (setting [6]) worked out at 14.3 µM. Further, the inhibition of growth at 60 µg/mL in experiment [2] was determined as 85.1%. Moreover, in experiment [3], the inhibition of growth at 30 µg/mL turned out to be 72.4%. Moreover, the inhibition of growth at 7.5 µg/mL in experiment [4] turned out to be 30.4%. Moreover, the inhibition of growth at 15 µg/mL in experiment [5] stood at 60.9%.
As for `COc1cccc2c1OCN(c1ccc3oc(-c4ccccc4)cc(=O)c3c1)C2`, in experiment [1] (setting [6]), the IC50 was 17 µM. In experiment [2], the inhibition of growth at 60 µg/mL came to 91.9%. Moreover, the inhibition of growth at 30 µg/mL in experiment [3] was found to be 67.8%. The inhibition of growth at 7.5 µg/mL in experiment [4] was 32.5%. Also, the inhibition of growth at 15 µg/mL in experiment [5] came to 54%.
Taken in the same sequence, the figures for `COc1cccc2c1C(=O)c1c(O)c3c(c(O)c1C2=O)C[C@@](O)(C(=O)CO)C[C@@H]3O[C@H]1C[C@H](N)[C@H](O)[C@H](C)O1` [DOXORUBICIN] were 7.2 µM, 99.5%, 88.9%, 50.8% and 70.3%.
For `O=c1cc(-c2ccccc2)oc2ccc(N3COc4c(Br)cccc4C3)cc12`, the IC50 in experiment [1] (setting [6]) stood at 19.6 µM. Also, the inhibition of growth at 60 µg/mL in experiment [2] is 81.8%. The inhibition of growth at 30 µg/mL in experiment [3] was determined as 71.6%. Further, the “growth inhibition (GI)” value in experiment [4] is “inactive”. Also, in experiment [5], the inhibition of growth at 15 µg/mL was determined as 37.8%.
For the compound `O=c1cc(-c2ccccc2)oc2cc(N3COc4c(Cl)cc(Cl)cc4C3)ccc12`, the IC50 in experiment [1] (setting [6]) is 44.5 µM. Also, the inhibition of growth at 60 µg/mL in experiment [2] was 68.8%. Moreover, the inhibition of growth at 30 µg/mL in experiment [3] turned out to be 34.6%. In experiment [4], the “growth inhibition (GI)” value is “inactive”. Also, the inhibition of growth at 15 µg/mL in experiment [5] was 11.8%.
In the case of `O=c1cc(-c2ccccc2)oc2ccc(N3COc4c(Cl)cc(Cl)cc4C3)cc12`, the IC50 in experiment [1] (setting [6]) was 12 µM. In experiment [2], the inhibition of growth at 60 µg/mL was found to be 80.3%. In addition, the inhibition of growth at 30 µg/mL in experiment [3] stood at 74%. The inhibition of growth at 7.5 µg/mL in experiment [4] stood at 32.8%. Moreover, in experiment [5], the inhibition of growth at 15 µg/mL worked out at 61.3%.
Take `O=c1cc(-c2ccccc2)oc2ccc(N3COc4c(Br)cc(Br)cc4C3)cc12`: the IC50 result in experiment [1] (mcf7) is reported as “Not Active”. The inhibition of growth at 60 µg/mL in experiment [2] was 34.5%. In addition, the inhibition of growth at 30 µg/mL in experiment [3] is 16.1%. Also, the inhibition of growth at 7.5 µg/mL in experiment [4] worked out at 6.54%. Besides, in experiment [5], the inhibition of growth at 15 µg/mL was 13.6%.
Take `O=c1cc(-c2ccccc2)oc2ccc(N3COc4ccccc4C3)cc12`: in experiment [1] (setting [6]), the IC50 turned out to be 27.5 µM. Besides, in experiment [2], the inhibition of growth at 60 µg/mL came to 92.7%. For the same compound, the inhibition of growth at 30 µg/mL in experiment [3] is 68.5%. The inhibition of growth at 7.5 µg/mL in experiment [4] amounted to 8.7%. Also, the inhibition of growth at 15 µg/mL in experiment [5] stood at 34%.
Turning to `O=c1cc(-c2ccccc2)oc2cc(N3COc4c(Br)cccc4C3)ccc12`, the IC50 entry in experiment [1] (mcf7) is on record as “Not Active”. In addition, the inhibition of growth at 60 µg/mL in experiment [2] came out at 19.5%. Besides, the inhibition of growth at 30 µg/mL in experiment [3] amounted to 7.89%. For the same compound, the inhibition of growth at 7.5 µg/mL in experiment [4] was 2.21%. Further, the inhibition of growth at 15 µg/mL in experiment [5] was 5.64%.
Turning to `COc1cc2c(c(OC)c1)OCN(c1ccc3c(=O)cc(-c4ccccc4)oc3c1)C2`, the IC50 in experiment [1] (setting [6]) was determined as 12.1 µM. Further, in experiment [2], the inhibition of growth at 60 µg/mL was 88.9%. In addition, the inhibition of growth at 30 µg/mL in experiment [3] came to 75.9%. In experiment [4], the inhibition of growth at 7.5 µg/mL was determined as 45.8%. The inhibition of growth at 15 µg/mL in experiment [5] was found to be 62.9%.
The corresponding values for `Cc1cccc2c1OCN(c1ccc3c(=O)cc(-c4ccccc4)oc3c1)C2` are 14.9 µM, 66.6%, 57.8%, 43.9% and 54.9%.
The corresponding values for `O=c1cc(-c2ccccc2)oc2ccc(N3COc4c(cccc4[N+](=O)[O-])C3)cc12` are 28.4 µM, 72.9%, 61.9%, 8.2% and 55.9%.
As to `O=c1cc(-c2ccccc2)oc2cc(N3COc4c(cccc4[N+](=O)[O-])C3)ccc12`, the half-inhibitory concentration (IC50) result in experiment [1] (mcf7) is recorded as “Not Active”. For the same compound, the inhibition of growth at 60 µg/mL in experiment [2] was 15.7%. In experiment [3], the inhibition of growth at 30 µg/mL stood at 5.65%. Besides, in experiment [4], the “growth inhibition (GI)” value is “inactive”. Moreover, the inhibition of growth at 15 µg/mL in experiment [5] amounted to 1.96%.
On to `O=c1cc(-c2ccccc2)oc2cc(N3COc4ccccc4C3)ccc12`, for which the IC50 entry in experiment [1] (mcf7) is “Not Active”. In experiment [2], the inhibition of growth at 60 µg/mL is 19.3%. Further, in experiment [3], the inhibition of growth at 30 µg/mL came out at 12.7%. Further, the inhibition of growth at 7.5 µg/mL in experiment [4] is 2.65%. In experiment [5], the inhibition of growth at 15 µg/mL stood at 3.89%.
With `Cc1ccc2c(c1)CN(c1ccc3oc(-c4ccccc4)cc(=O)c3c1)CO2`, the IC50 in experiment [1] (setting [6]) worked out at 29.8 µM. Also, in experiment [2], the inhibition of growth at 60 µg/mL turned out to be 79.5%. Further, the inhibition of growth at 30 µg/mL in experiment [3] is 56.9%. For the same compound, the inhibition of growth at 7.5 µg/mL in experiment [4] was found to be 16.5%. The inhibition of growth at 15 µg/mL in experiment [5] turned out to be 31%.
As for `COc1cc2c(c(OC)c1)OCN(c1ccc3oc(-c4ccccc4)cc(=O)c3c1)C2`, the IC50 in experiment [1] (setting [6]) came out at 8.01 µM. Also, the inhibition of growth at 60 µg/mL in experiment [2] is 99.1%. Moreover, the inhibition of growth at 30 µg/mL in experiment [3] stood at 79%. The inhibition of growth at 7.5 µg/mL in experiment [4] stood at 48.9%. In addition, in experiment [5], the inhibition of growth at 15 µg/mL was determined as 60%.
Turning to `Cc1cc(C)c2c(c1)CN(c1ccc3c(=O)cc(-c4ccccc4)oc3c1)CO2`, the IC50 in experiment [1] (setting [6]) stood at 61.9 µM. Also, the inhibition of growth at 60 µg/mL in experiment [2] amounted to 48.4%. Besides, the inhibition of growth at 30 µg/mL in experiment [3] was determined as 26.8%. The inhibition of growth at 7.5 µg/mL in experiment [4] stood at 11.2%. The “growth inhibition (GI)” value in experiment [5] is “inactive”.
